Experimental data taken from US10918713B2, “Epitopes from allergen proteins and methods and uses for immune response modulation” (LA JOLLA INSTITUTE FOR ALLERGY AND IMMUNOLOGY, priority 2012, dated 2021).
Values joined by “and” are separate entries in the source; they are usually repeats but may differ in a detail not shown here. Identical values can stand only once.

Assays:
[1] = test system: PBMC from allergic donors; assay: Dual ELISPOT, total IL-5 and IFN-γ response (SFC); format: cell-based, human; conditions: sum of IFNg and IL-5
Method: (§1) Spots were counted by computer-assisted image analysis (Zeiss, KS-ELISPOT reader, Munich, Germany).
(§2) Each assay was performed in triplicate. The level of statistical significance was determined with a Student's t-test using the mean of triplicate values of the response against relevant pools or individual peptides versus the response against the DMSO control.

[2] = test system: PBMC from allergic donors; assay: IL-5 ELISPOT with extract-stimulated short-term lines; format: cell-based, human; conditions: positive donor/peptide response
Method: as §1, §2

Substance | Response (SFC/10^6) Total ([1]; one donor per table line) | Response (SFC/10^6) IL-5 ([2]; one donor per table line) | Response (SFC/10^6) Total ([1]; each table line is one donor) | Response (SFC/10^6) IL-5 ([2]; each table line is one donor)
3324.1001 (RKDLDIFEQYNLEMA) | 117 SFC/10^6 | 117 SFC/10^6 |  | 
3324.1036 (TLPTILQIASVTKMS) | 120 SFC/10^6 | 120 SFC/10^6 |  | 
3324.1040 (TIYSNVANLRNWIIS) | 297 SFC/10^6 | 297 SFC/10^6 |  | 
3324.1043 (SNVANLRNWIISNTV) | 177 SFC/10^6 | 177 SFC/10^6 |  | 
3324.1102 (DTCRARFITKLSEFI) | 67 SFC/10^6 | 67 SFC/10^6 |  | 
3324.1105 (LSEFITGASVRLQCR) | 73 SFC/10^6 | 73 SFC/10^6 |  | 
3324.1129 (ELADILRSLGSDVGE) | 380 SFC/10^6 | 380 SFC/10^6 |  | 
3324.1130 (LISVEEFQTMMTSEM) | 153 SFC/10^6 | 153 SFC/10^6 |  | 
3324.1131 (GYVSLQEFVDLNNKG) | 80 SFC/10^6 and 420 SFC/10^6 | 80 SFC/10^6 and 420 SFC/10^6 |  | 
3324.1134 (VALFAVFLGSAHGIA) | 208 SFC/10^6 | 208 SFC/10^6 |  | 
3324.1137 (KQQGIRYANPIAFFR) | 123 SFC/10^6 | 123 SFC/10^6 |  | 
3324.1170 (FLAVALVAGPAASYA) |  |  | 63 SFC/10^6 | 63 SFC/10^6
3324.1178 (EVKYTVSETALKKAV) |  |  | 333 SFC/10^6 | 333 SFC/10^6
3324.1179 (FTVFENTFNNAIKVS) |  |  | 87 SFC/10^6 | 87 SFC/10^6
3324.1181 (VDAAYRTAATAANAA) |  |  | 383 SFC/10^6 | 383 SFC/10^6
3324.1183 (LKKAVTAMSEAEKEA) |  |  | 128 SFC/10^6 | 128 SFC/10^6
3324.1186 (TNKAFVEGLASGYAD) |  |  | 287 SFC/10^6 | 287 SFC/10^6
3324.1191 (DKFTVFESAFNKALN) |  |  | 97 SFC/10^6 | 97 SFC/10^6
3324.1196 (AALTKAITAMTQAQK) |  |  | 998 SFC/10^6 | 998 SFC/10^6
3324.1547 (KYMVIQGEPGAVIRG) | 63 SFC/10^6 | 63 SFC/10^6 |  | 

Substance | Response (SFC/10^6) Total ([1]; one donor per table line) | Response (SFC/10^6) IL-5 ([2]; one donor per table line) | Response (SFC/10^6) Total ([1]; each table line is one donor) | Response (SFC/10^6) IL-5 ([2]; each table line is one donor)
3324.1549 (SSSFPQFKSEEITNI) | 77 SFC/10^6 | 77 SFC/10^6 |  | 
3324.1550 (GVTVKKTNQALIFGI) | 93 SFC/10^6 | 93 SFC/10^6 |  | 
3324.1552 (HSRNLINELSERMAG) |  |  | 118 SFC/10^6 and 190 SFC/10^6 and 57 SFC/10^6 | 118 SFC/10^6 and 190 SFC/10^6 and 57 SFC/10^6
3324.1558 (NYLALLVKYVTGDGD) |  |  | 80 SFC/10^6 | 80 SFC/10^6
3324.1562 (DKFTVFEAAFNNAIK) |  |  | 183 SFC/10^6 | 183 SFC/10^6
3324.1591 (FIFGEARSLYLNTEL) |  |  | 500 SFC/10^6 and 133 SFC/10^6 | 500 SFC/10^6 and 133 SFC/10^6
3324.1593 (FEAARVVFSYCNLSD) |  |  | 363 SFC/10^6 | 363 SFC/10^6
3324.1594 (SDYFVGANLIVSNSA) |  |  | 920 SFC/10^6 | 920 SFC/10^6
3324.1596 (AAEFGTVDSATLIVE) |  |  | 3003 SFC/10^6 | 3003 SFC/10^6
3324.1599 (EKVKIERLHPYITLY) |  |  | 260 SFC/10^6 | 260 SFC/10^6
3324.1600 (EYIEAAKWLLPPPKV) |  |  | 980 SFC/10^6 | 980 SFC/10^6
3324.1601 (GANLIVSNSAPRPDG) |  |  | 147 SFC/10^6 | 147 SFC/10^6
3324.1602 (RTIFFDAYLGTSYVI) |  |  | 433 SFC/10^6 | 433 SFC/10^6
3324.1603 (DAYLGTSYVIVIKEP) |  |  | 290 SFC/10^6 | 290 SFC/10^6
3324.1606 (KIAAEIAIALLFLRD) |  |  | 90 SFC/10^6 | 90 SFC/10^6
3324.1608 (IAIALLFLRDAKPEP) |  |  | 97 SFC/10^6 | 97 SFC/10^6
3324.1609 (SFGIILLQLLTARPP) |  |  | 103 SFC/10^6 | 103 SFC/10^6
3324.1630 (TKLDDEIKSWLAFAA) |  |  | 87 SFC/10^6 | 87 SFC/10^6
3324.1632 (VIAELKAAGASTIQF) |  |  | 313 SFC/10^6 | 313 SFC/10^6
